Laboratory results published in ChEMBL document CHEMBL5233269, “Anticancer potential of spirocompounds in medicinal chemistry: A pentennial expedition” (Eur J Med Chem, 2021).
≈ marks a conversion by molar mass, not a printed value.

Experiments:
[1] = molecular target: Tumour suppressor p53/oncoprotein Mdm2 (Homo sapiens) (UniProt P04637+Q00987); test: Inhibition of MDM2/p53 (unknown origin) interaction at 10 uM relative to control; assay type: protein assay
MCF7 [2] = test: Antiproliferative activity against human MCF7 cells; assay type: functional, cell-based
A549 [3] = test: Antiproliferative activity against human A549 cells; assay type: functional, cell-based
U-937 = test: Antiproliferative activity against human U-937 cells measured upto 72 hrs by microscopy based analysis; assay type: functional, cell-based; conditions: U-937, 72 h
K562 = test: Antiproliferative activity against human K562 cells measured upto 72 hrs by microscopy based analysis; assay type: functional, cell-based; conditions: K562, 72 h
MCF7 [4] = test: Anticancer activity against human MCF7 cells assessed as reduction in cell viability; assay type: functional, cell-based
HepG2 [5] = test: Anticancer activity against human HepG2 cells assessed as reduction in cell viability; assay type: functional, cell-based
HeLa [6] = test: Anticancer activity against human HeLa cells assessed as inhibition of cell proliferation; assay type: functional, cell-based
B16-F10 = test: Anticancer activity against mouse B16-F10 cells; assay type: functional, cell-based
MCF7 [7] = test: Antiproliferative activity against human MCF7 cells assessed as reduction in cell viability; assay type: functional, cell-based
MDA-MB-231 [8] = test: Antiproliferative activity against human MDA-MB-231 cells; assay type: functional, cell-based
A549 [9] = test: Antiproliferative activity against human A549 cells assessed as reduction in cell viability; assay type: functional, cell-based
HeLa [10] = test: Antiproliferative activity against human HeLa cells; assay type: functional, cell-based
[11] = Anticancer activity against human Panel (56 tumour cell lines) at 10 uM relative to control; assay type: functional
A-375 [12] = test: Cytotoxicity against human A-375 cells at 100 ug/ml incubated for 24 hrs by MTT assay; assay type: functional; conditions: dose 100 µg/ml
A-375 [13] = test: Cytotoxicity against human A-375 cells at 10 ug/ml incubated for 24 hrs by MTT assay; assay type: functional; conditions: dose 10 µg/ml
PC-3 = test: Growth inhibition of human PC-3 cells assessed as reduction in cell viability by SRB assay; assay type: functional
MCF7 [14] = test: Growth inhibition of human MCF7 cells assessed as reduction in cell viability by SRB assay; assay type: functional
COLO 205 = test: Growth inhibition of human COLO 205 cells assessed as reduction in cell viability by SRB assay; assay type: functional
HCT-116 [15] = test: Antiproliferative activity against human HCT-116 cells incubated for 72 hrs by MTT assay; assay type: functional, cell-based; conditions: HCT-116, 72 h
Jurkat = test: Antiproliferative activity against human Jurkat cells incubated for 72 hrs by MTT assay; assay type: functional, cell-based
MDA-MB-231 [16] = test: Antiproliferative activity against human MDA-MB-231 cells incubated for 72 hrs by MTT assay; assay type: functional, cell-based; conditions: MDA-MB-231, 72 h
Caco-2 = test: Antiproliferative activity against human Caco-2 cells incubated for 72 hrs by MTT assay; assay type: functional, cell-based; conditions: Caco-2, 72 h
HeLa [17] = test: Antiproliferative activity against human HeLa cells incubated for 72 hrs by MTT assay; assay type: functional, cell-based
MCF7 [18] = test: Antiproliferative activity against human MCF7 cells incubated for 72 hrs by MTT assay; assay type: functional, cell-based; conditions: MCF7, 72 h
CCRF-CEM = test: Antiproliferative activity against human CEM cells incubated for 72 hrs by MTT assay; assay type: functional, cell-based
A549 [19] = test: Antiproliferative activity against human A549 cells incubated for 72 hrs by MTT assay; assay type: functional, cell-based; conditions: A549, 72 h
HeLa [20] = test: Cytotoxicity against human HeLa cells; assay type: functional, cell-based
[21] = Cytotoxicity against green monkey Vero cells; assay type: toxicity, cell-based; conditions: green monkey (Chlorocebus sabaeus)
HFF = test: Antiproliferative activity against human HFF cells incubated for 2 days by MTT assay; assay type: functional, cell-based; conditions: 48 h
HT-29 = test: Antiproliferative activity against human HT-29 cells incubated for 2 days by MTT assay; assay type: functional, cell-based; conditions: HT-29, 48 h
HepG2 [22] = test: Antiproliferative activity against human HepG2 cells incubated for 2 days by MTT assay; assay type: functional, cell-based; conditions: HepG2, 48 h
MCF7 [23] = test: Antiproliferative activity against human MCF7 cells incubated for 2 days by MTT assay; assay type: functional, cell-based; conditions: MCF7, 48 h
T47D = test: Antiproliferative activity against human T47D cells incubated for 2 days by MTT assay; assay type: functional, cell-based; conditions: 48 h
[24] = molecular target: cGMP-specific 3',5'-cyclic phosphodiesterase (Homo sapiens) (UniProt O76074); test: Inhibition of PDE5 (unknown origin) at 3 nM relative to control
HepG2 [25] = test: Anticancer activity against human HepG2 cells incubated for 48 hrs by MTT assay; assay type: functional, cell-based; conditions: HepG2, 48 h
MCF7 [26] = test: Anticancer activity against human MCF7 cells incubated for 48 hrs by MTT assay; assay type: functional, cell-based; conditions: MCF7, 48 h
[27] = Anticancer activity against human U87 cells incubated for 48 hrs by MTT assay; assay type: functional, cell-based, U-87MG ATCC; conditions: U-87 MG
HCT-116 [28] = test: Anticancer activity against human HCT-116 cells incubated for 48 hrs by MTT assay; assay type: functional, cell-based; conditions: HCT-116, 48 h
A549 [29] = test: Anticancer activity against human A549 cells incubated for 48 hrs by MTT assay; assay type: functional, cell-based; conditions: A549, 48 h
MCF7 [30] = test: Antiproliferative activity against human MCF7 cells by MTT assay; assay type: functional, cell-based
MDA-MB-231 [31] = test: Antiproliferative activity against human MDA-MB-231 cells assessed as inhibition of cell viability by MTT assay; assay type: functional, cell-based

Sequence of Tumour suppressor p53/oncoprotein Mdm2 (Homo sapiens) (P04637 whole entry, looked up): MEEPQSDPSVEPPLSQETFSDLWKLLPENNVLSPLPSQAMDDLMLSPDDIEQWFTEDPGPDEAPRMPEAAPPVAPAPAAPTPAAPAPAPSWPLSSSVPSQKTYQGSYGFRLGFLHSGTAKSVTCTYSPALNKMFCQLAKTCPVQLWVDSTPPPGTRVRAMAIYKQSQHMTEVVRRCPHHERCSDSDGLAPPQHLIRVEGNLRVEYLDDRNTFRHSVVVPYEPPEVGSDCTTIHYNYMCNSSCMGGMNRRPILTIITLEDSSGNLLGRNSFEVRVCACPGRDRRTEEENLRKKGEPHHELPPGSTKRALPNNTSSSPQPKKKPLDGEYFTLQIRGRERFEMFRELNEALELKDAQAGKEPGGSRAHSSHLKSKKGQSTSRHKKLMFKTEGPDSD
Sequence of Tumour suppressor p53/oncoprotein Mdm2 (Homo sapiens) (Q00987 whole entry, looked up): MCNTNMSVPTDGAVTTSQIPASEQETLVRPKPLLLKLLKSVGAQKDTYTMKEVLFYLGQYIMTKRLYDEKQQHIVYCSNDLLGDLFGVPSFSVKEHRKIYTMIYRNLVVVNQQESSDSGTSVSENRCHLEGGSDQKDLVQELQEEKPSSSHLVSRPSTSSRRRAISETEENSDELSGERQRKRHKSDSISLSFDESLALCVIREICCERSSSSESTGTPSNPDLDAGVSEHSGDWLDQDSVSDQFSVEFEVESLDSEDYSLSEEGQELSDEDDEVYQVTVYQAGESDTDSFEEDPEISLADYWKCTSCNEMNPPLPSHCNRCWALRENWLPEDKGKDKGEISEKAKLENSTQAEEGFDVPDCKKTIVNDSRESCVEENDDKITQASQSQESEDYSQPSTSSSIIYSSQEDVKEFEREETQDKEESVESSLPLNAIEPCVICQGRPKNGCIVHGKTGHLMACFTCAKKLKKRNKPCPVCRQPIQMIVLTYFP

For NC(=O)C1CN(C(=O)N2CCCCC2)C2(C(=O)Nc3ccccc32)C1c1ccccc1O (stereo not drawn), the inhibition [1] was 65.4%.
Molecule CCC(C)N1C(=O)C2(C(C#N)=C(N)Oc3c2c(=O)oc2ccccc32)c2ccccc21 (stereo not drawn) has an IC50 (MCF7 [2]) of 37.6 µM and an IC50 (A549 [3]) of 34.1 µM.
Work on CC1=CC(=O)C2(C(=O)O1)C(c1ccc(C(C)(C)C)cc1)CC(=O)CC2c1ccc(C(C)(C)C)cc1 (stereo not drawn) yielded an IC50 (U-937) of 43.7 µM and an IC50 (K562) of 58.6 µM.
With N#Cc1c(-c2ccc(Cl)cc2)c2c(n(CC(=O)O)c1=O)N(c1ccc(N)cc1)C1(CCCCC1)S2 the IC50 (MCF7 [4]) was 12.6 µg/mL (≈ 24.9 µM) and the IC50 (HepG2 [5]) was 9.29 µg/mL (≈ 18.3 µM).
With CN1C(=O)N(C)C(=O)C2(CC3(C(=O)c4ccccc4C3=O)N(C)[C@H]2c2ccc(Br)cc2)C1=O the IC50 (HeLa [6]) was 7.3 µM and the IC50 (B16-F10) was 5.2 µM.
O=C1C=CC2(C=C1Br)OCC(=O)N2c1nc(-c2cccc(Cl)c2)nn1-c1ccccc1 (stereo not drawn) showed an IC50 (MCF7 [7]) of 0.00411 µM, an IC50 (MDA-MB-231 [8]) of 0.0008 µM and an IC50 (A549 [9]) of 0.0252 µM. It also gave an IC50 (HeLa [10]) of 0.0453 µM.
For O=C1NC2(CCNCC2)Nc2ccccc21, the inhibition at 10 µM [11] was 100%.
CN1CC(n2ccc3ccccc32)C(C#N)(C#N)C12C(=O)N(Cc1ccccc1)c1ccccc12 (stereo not drawn) gave an Activity (A-375 [12]) of 95.86% and an Activity (A-375 [13]) of 97.29%.
For CCOP1(=O)N(CC)N=NC12SC1=CCCCC1=C2C#N (stereo not drawn), the GI50 (PC-3) was 9.97 µM, the GI50 (MCF7 [14]) was 5.03 µM and the GI50 (COLO 205) was 17.8 µM.
CON1c2ccccc2[C@@]2(CN=C(Nc3cc(C(F)(F)F)cc(C(F)(F)F)c3)S2)[C@@H]1Nc1cc(C(F)(F)F)cc(C(F)(F)F)c1 showed an IC50 (HCT-116 [15]) of 65.1 µM, an IC50 (Jurkat) of 2 µM and an IC50 (MDA-MB-231 [16]) of 4 µM. It also gave an IC50 (Caco-2) of 47 µM, an IC50 (HeLa [17]) of 3 µM and an IC50 (MCF7 [18]) of 2 µM. The IC50 (CCRF-CEM) was 5 µM and the IC50 (A549 [19]) was 2 µM.
O=C1CC(c2ccccc2)C2(C(=O)Oc3ccccc3C2=O)C(c2ccccc2)C1 (stereo not drawn) showed an IC50 (U-937) of 51.6 µM and an IC50 (K562) of 74 µM.
For O=C(c1ccccn1)[C@@H]1[C@@H](c2ccc(Cl)cc2Cl)[C@H](c2ccccc2)NC12C(=O)Nc1ccccc12 (stereo partly drawn), the IC50 (HeLa [20]) was 16 µg/mL (≈ 31.1 µM) and the IC50 [21] was 17 µg/mL (≈ 33 µM).
COP1(=O)N(C)N=NC12SC1=CCCCC1=C2C#N (stereo not drawn) gave a GI50 (PC-3) of 12.4 µM, a GI50 (MCF7 [14]) of 6.35 µM and a GI50 (COLO 205) of 18.4 µM.
COc1ccc(C2=NOC3(Cc4ccccc4C3=O)C2c2ccc(S(C)(=O)=O)cc2)cc1OC (stereo not drawn) showed an IC50 (HFF) of 33.9 µM, an IC50 (HT-29) of 94.6 µM and an IC50 (HepG2 [22]) of 0.059 µM. It also gave an IC50 (MCF7 [23]) of 53.7 µM and an IC50 (T47D) of 21.4 µM.
CCOC(=O)N1CCC2(CC1)NC(=O)c1ccccc1N2 showed an inhibition [24] of 100%.
Work on O=C(c1ccccn1)[C@@H]1[C@@H](c2ccccc2Cl)[C@H](c2ccccc2)NC12C(=O)Nc1ccccc12 (stereo partly drawn) yielded an IC50 (HeLa [20]) of 70 µg/mL (≈ 146 µM) and an IC50 [21] greater than 110 µg/mL.
Molecule CCOC(=O)[C@H]1[C@@H](NO)[C@@H]2c3ccccc3OC(C)(C)[C@H]2[C@H](O)[C@]12C(=O)Nc1ccc(Cl)cc12 has an IC50 (HepG2 [25]) of 18.4 µM, an IC50 (MCF7 [26]) of 1.7 µM and an IC50 [27] of 37.5 µM. For the same molecule, the IC50 (HCT-116 [28]) was 13 µM and the IC50 (A549 [29]) was 5.9 µM.
Work on CCOC(=O)[C@H]1[C@@H](NO)[C@@H]2c3ccccc3OC(C)(C)[C@H]2[C@H](O)[C@]12C(=O)Nc1ccc(F)cc12 yielded an IC50 (HepG2 [25]) of 16.2 µM, an IC50 (MCF7 [26]) of 2.5 µM and an IC50 [27] of 41.9 µM. For the same molecule, the IC50 (HCT-116 [28]) was 25.4 µM and the IC50 (A549 [29]) was 4.8 µM.
Clc1cccc(Cl)c1C1=NO[C@@]2(CCCCO2)[C@H]1Br gave an IC50 (MCF7 [30]) of 52.4 µM and an IC50 (MDA-MB-231 [31]) of 43.1 µM.
With COc1ccc(-n2nc(-c3ccccc3)nc2N2C(=O)COC23C=CC(=O)C=C3)cc1 the IC50 (MCF7 [7]) was 0.0888 µM, the IC50 (MDA-MB-231 [8]) was 0.0277 µM and the IC50 (A549 [9]) was 0.0268 µM. It also gave an IC50 (HeLa [10]) of 0.01 µM.
